Measurements taken from PubChem BioAssay AID248 (DTP/NCI, 2004).
Inconclusive results and toxic doses are left out. Cut-off read from the data, not from the text of the source: active = T/C of 150% or more; inactive = T/C below 125%.

Test system: L1210 leukemia ip in BDF1 mice, survival T/C
Assay: NCI In Vivo Anticancer Drug Screen. Data for tumor model L1210 Leukemia (intraperitoneal) in B6D2F1 (BDF1) mice
Settings: endpoint: mean survival time, higher = longer survival
Method in brief: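 Tumor cells were implanted, animals were treated, and survival was followed. The result divides the treated measurement by the vehicle-control measurement.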

[1] = dose: 100.0 mg/kg/injection, schedule: Q01DX001 (ip), vehicle: carboxymethylcellulose (CMC)
[2] = dose: 200.0 mg/kg/injection, schedule: Q01DX001 (ip), vehicle: carboxymethylcellulose (CMC)
[3] = dose: 400.0 mg/kg/injection, schedule: Q01DX001 (ip), vehicle: carboxymethylcellulose (CMC)
[4] = dose: 100.0 mg/kg/injection, schedule: Q01DX001 (ip), vehicle: Klucel (hydroxypropylcellulose) (HPC)
[5] = dose: 200.0 mg/kg/injection, schedule: Q01DX001 (ip), vehicle: Klucel (hydroxypropylcellulose) (HPC)
[6] = dose: 400.0 mg/kg/injection, schedule: Q01DX001 (ip), vehicle: Klucel (hydroxypropylcellulose) (HPC)
[7] = dose: 100.0 mg/kg/injection, schedule: Q04DX003 (ip), vehicle: saline with Tween-80
[8] = dose: 100.0 mg/kg/injection, schedule: Q04DX003 (ip), vehicle: Klucel (hydroxypropylcellulose) (HPC)
[9] = dose: 200.0 mg/kg/injection, schedule: Q04DX003 (ip), vehicle: Klucel (hydroxypropylcellulose) (HPC)
[10] = dose: 400.0 mg/kg/injection, schedule: Q04DX003 (ip), vehicle: Klucel (hydroxypropylcellulose) (HPC)
[11] = dose: 100.0 mg/kg/injection, schedule: Q01DX009 (ip), vehicle: Klucel (hydroxypropylcellulose) (HPC)
[12] = dose: 200.0 mg/kg/injection, schedule: Q01DX009 (ip), vehicle: Klucel (hydroxypropylcellulose) (HPC)
[13] = dose: 400.0 mg/kg/injection, schedule: Q01DX009 (ip), vehicle: Klucel (hydroxypropylcellulose) (HPC)
[14] = dose: 100.0 mg/kg/injection, schedule: Q04DX003 (ip), vehicle: saline
[15] = dose: 200.0 mg/kg/injection, schedule: Q04DX003 (ip), vehicle: saline with Tween-80
[16] = dose: 400.0 mg/kg/injection, schedule: Q04DX003 (ip), vehicle: saline with Tween-80
[17] = dose: 100.0 mg/kg/injection, schedule: Q01DX001 (ip), vehicle: other
[18] = dose: 100.0 mg/kg/injection, schedule: Q01DX001 (ip), vehicle: saline
[19] = dose: 200.0 mg/kg/injection, schedule: Q04DX003 (ip), vehicle: saline
[20] = dose: 400.0 mg/kg/injection, schedule: Q04DX003 (ip), vehicle: saline
[21] = dose: 200.0 mg/kg/injection, schedule: Q01DX001 (ip), vehicle: saline
[22] = dose: 400.0 mg/kg/injection, schedule: Q01DX001 (ip), vehicle: saline

Measured: T/C

O=C(NCCCl)Nc1ncccn1
inactive: [1] 97 % of control | [2] 106 % of control | [3] 103 % of control

CN=C(c1ccc(NC(=O)c2ccc(C(=O)Nc3ccc(C(=NC)N(C)C)cc3)cc2)cc1)N(C)C
inactive: dose: 0.94 mg/kg/injection, schedule: Q01DX Z (ip), vehicle: saline 94 % of control | dose: 1.88 mg/kg/injection, schedule: Q01DX Z (ip), vehicle: saline 101 % of control | dose: 3.75 mg/kg/injection, schedule: Q01DX Z (ip), vehicle: saline 97 % of control | dose: 7.5 mg/kg/injection, schedule: Q01DX Z (ip), vehicle: saline 111 % of control

CC(=O)NC(CSC(=N)N)C(=O)O (stereo unspecified)
inactive: dose: 50.0 mg/kg/injection, schedule: Q01DX001 (ip), vehicle: carboxymethylcellulose (CMC) 107 % of control | [1] 98 % of control | [2] 98 % of control | [3] 102 % of control

c1cnc2c3c(ccc2c1)CN(C1CCCCC1)CO3
inactive: dose: 100.0 mg/kg/injection, schedule: Q04DX003 (ip), vehicle: saline sonified 94 % of control | dose: 200.0 mg/kg/injection, schedule: Q04DX003 (ip), vehicle: saline sonified 91 % of control

CC(C)Cc1c(N)nc(=O)[nH]c1C(=O)O
inactive: dose: 75.0 mg/kg/injection, schedule: Q01DX009 (ip), vehicle: Klucel (hydroxypropylcellulose) (HPC) 95 % of control | [4] 96 % of control | dose: 150.0 mg/kg/injection, schedule: Q01DX009 (ip), vehicle: Klucel (hydroxypropylcellulose) (HPC) 98 % of control | [5] 100 % of control | dose: 300.0 mg/kg/injection, schedule: Q01DX009 (ip), vehicle: Klucel (hydroxypropylcellulose) (HPC) 101 % of control | [6] 100 % of control

OC1CC2CCC(C1)N2CCCN1c2ccccc2Sc2ccc(Cl)cc21 (stereo unspecified)
inactive: dose: 25.0 mg/kg/injection, schedule: Q01DX009 (ip), vehicle: saline with Tween-80 112 % of control | dose: 50.0 mg/kg/injection, schedule: Q01DX009 (ip), vehicle: saline with Tween-80 87 % of control | dose: 50.0 mg/kg/injection, schedule: Q04DX003 (ip), vehicle: saline with Tween-80 97 % of control | [7] 112 % of control | dose: 133.0 mg/kg/injection, schedule: Q04DX003 (ip), vehicle: saline with Tween-80 107 % of control

C[N+](C)(C)CCS(=O)(=O)Cc1ccccc1
inactive: dose: 75.0 mg/kg/injection, schedule: Q01DX001 (ip), vehicle: carboxymethylcellulose (CMC) 110 % of control | dose: 150.0 mg/kg/injection, schedule: Q01DX001 (ip), vehicle: carboxymethylcellulose (CMC) 108 % of control | dose: 300.0 mg/kg/injection, schedule: Q01DX001 (ip), vehicle: carboxymethylcellulose (CMC) 96 % of control

O=P(c1ccccc1)(c1ccccc1)N1CCCCC1
inactive: [8] 101 % of control | [9] 96 % of control | [10] 93 % of control

COC(=O)C1C(C(=O)OC)C2(Cl)C(Cl)=C(Cl)C1(Cl)C2(Br)Br (stereo unspecified)
inactive: [4] 101 % of control | [11] 104 % of control | [8] 104 % of control | [5] 104 % of control | [12] 101 % of control | [9] 100 % of control | [6] 97 % of control | [13] 97 % of control | [10] 104 % of control

C=C(C)C1C2OC2C(=O)C2=CCCC(C)C21C (stereo unspecified)
inactive: dose: 25.0 mg/kg/injection, schedule: Q04DX003 (ip), vehicle: saline 97 % of control | dose: 50.0 mg/kg/injection, schedule: Q04DX003 (ip), vehicle: saline 100 % of control | [14] 100 % of control

O=C1CC(c2ccccn2)=NN1c1ccccc1
inactive: [7] 98 % of control | [15] 94 % of control | [16] 91 % of control

COC(=O)c1cc(NC(=O)c2ccccc2F)cc(C(=O)OC)c1
inactive: dose: 100.0 mg/kg/injection, schedule: Q01DX009 (ip), vehicle: carboxymethylcellulose (CMC) 88 % of control | dose: 200.0 mg/kg/injection, schedule: Q01DX009 (ip), vehicle: carboxymethylcellulose (CMC) 90 % of control | dose: 400.0 mg/kg/injection, schedule: Q01DX009 (ip), vehicle: carboxymethylcellulose (CMC) 91 % of control

O=C(COc1ccc([N+](=O)[O-])cc1)Nc1cccnc1
inactive: [7] 96 % of control | [15] 95 % of control | [16] 96 % of control

CC1(C)c2ccccc2C(C)(C)[N+]1(C)C
inactive: [17] 101 % of control

CC(=O)OCCC/C(=C\c1cccc([N+](=O)[O-])c1)[N+](=O)[O-]
inactive: [17] 111 % of control

CNc1ncnc2nc(Cl)[nH]c12
inactive: [18] 108 % of control

CC(C)=NC(=O)NO.[Cl][Ni][Cl]
inactive: dose: 15.0 mg/kg/injection, schedule: Q01DX001 (ip), vehicle: saline 102 % of control | dose: 30.0 mg/kg/injection, schedule: Q01DX001 (ip), vehicle: saline 110 % of control | dose: 60.0 mg/kg/injection, schedule: Q01DX001 (ip), vehicle: saline 111 % of control | dose: 75.0 mg/kg/injection, schedule: Q01DX001 (ip), vehicle: saline 116 % of control

COc1ccc2c(C(=O)CCC(=O)O)cccc2c1
inactive: [14] 104 % of control | [19] 95 % of control | [20] 106 % of control

O=C(/C=C/c1cccnc1)NCC(O)CO (stereo unspecified)
inactive: dose: 100.0 mg/kg/injection, schedule: Q01DX009 (ip), vehicle: saline 101 % of control | [14] 108 % of control | dose: 200.0 mg/kg/injection, schedule: Q01DX009 (ip), vehicle: saline 97 % of control | [19] 105 % of control | dose: 400.0 mg/kg/injection, schedule: Q01DX009 (ip), vehicle: saline 100 % of control | [20] 96 % of control

CCOC(Nc1cc(Cl)cc(Cl)c1)C(=O)c1ccccc1 (stereo unspecified)
inactive: [18] 97 % of control | [21] 91 % of control | [22] 91 % of control

O=[N+]([O-])c1ccc(N=NNc2ccc(N=Nc3ccccc3)cc2)cc1
inactive: dose: 25.0 mg/kg/injection, schedule: Q01DX009 (ip), vehicle: Klucel (hydroxypropylcellulose) (HPC) 91 % of control | dose: 25.0 mg/kg/injection, schedule: Q04DX003 (ip), vehicle: other 89 % of control | dose: 50.0 mg/kg/injection, schedule: Q01DX009 (ip), vehicle: Klucel (hydroxypropylcellulose) (HPC) 102 % of control | dose: 50.0 mg/kg/injection, schedule: Q04DX003 (ip), vehicle: other 95 % of control | dose: 100.0 mg/kg/injection, schedule: Q04DX003 (ip), vehicle: other 92 % of control

Cc1cccc(Cl)c1NC(=O)COc1ccc(Cl)cc1
inactive: [11] 102 % of control | [12] 89 % of control | [13] 93 % of control

O=C1CCC(=S)N1c1ccccc1
inactive: [8] 101 % of control | [9] 100 % of control | [10] 95 % of control

CCCCC(=O)N/N=C/c1ccccc1[N+](=O)[O-]
inactive: [2] 95 % of control | [3] 90 % of control

O=c1cc(-c2ccccc2Br)[nH]c2ccccc12
inactive: [18] 96 % of control | [21] 100 % of control | [22] 96 % of control
